{"source": "patent EP2351758B1", "about": "“METAL COMPLEXES, A METHOD FOR PREPARING SAME, RADIOPHAR[…] BASED THEREON” (Zakrytoe Aktsionernoe Obschestvo \"Farm-Sintez\", priority 2008, dated 2010)", "key": {"[1]": {"details": "3 hours after administration, cited from earlier work"}, "[2]": {"test": "Pharmacokinetics (distribution in organs and tissues) in intact female rats after intravenous introduction", "format": "in vivo", "details": "for Blood / Femur / Kidneys / Liver / Skeleton / Stomach / Urinary bladder (1, 3 h) / Excretion (5, 24): intact female rats, i.v.", "experimental": "(§1) The experiments were run on the intact scrub albino rats with modeled osseous pathology. The osseous pathology was imitated by the femur fracture.\n(§2) To prepare the composition, 5.0 ml of the sodium pertechnetate ^99mTc from the technetium generator (FSP 42-0225-4528-03, FSP 42-0018-2694-02) were injected into the lyophilizate vial by puncturing the rubber stopper with a syringe needle; then the vial was agitated and cured 20 minutes. The 0.2 ml volume of the composition was injected into the caudal vein. 1, 3, 5, and 24 hours after injection the animals were devitalized by decapitation; then the samples of blood, liver, kidneys, stomach, right and left femurs, urinary bladder with contents were taken. The radionuclide in organs and tissues was determined by the direct radiometry.\n(§3) The statistical treatment used the Student's method."}, "[3]": {"test": "Pharmacokinetics (distribution in organs and tissues) in female rats with modeled osseous pathology (femur fracture) after intravenous introduction", "format": "in vivo", "details": "for Blood / Femur, fractured / Femur, normal / Kidneys / Liver / Skeleton / Stomach / Urinary bladder (1, 3 h) / Excretion (5, 24): female rats with modeled osseous pathology, i.v.; for Delayed retention index: ratio of concentration in femur with modeled pathology to healthy femur", "experimental": "as §1, §2\nThe delayed retention index was determined as the ratio of division of the composition concentration in the femoral bone with the modeled osseous pathology and in the healthy femoral bone.\nas §3"}, "[4]": {"details": "intact animals, 3 hours after introduction"}}, "note": "Read-outs that look alike come from different tables or passages of the source.", "data": [{"substance": "99Tcm labeled zoledronate (ZL) [known solution (Wang et al)]", "values": [{"measurement": "skeletal retention of RM", "setting": "[1]; known solution (Wang et al)", "result": 34.2, "unit": "%"}, {"measurement": "retention level in the liver", "setting": "[1]; prior metal complex (Wang et al)", "result": "13.4 % of the doze injected"}]}, {"substance": "Technetium-99m in form of complex with zoledronic acid [zoledronic acid, 99mTc]", "values": [{"measurement": "retention level in the liver", "setting": "[2]; 3 hours after administration", "result": "1.0 % of the doze injected"}, {"measurement": "skeletal retention of RM", "setting": "[2]; 3 hours after the administration", "result": "47.3 % of the dose injected"}, {"measurement": "activity level in blood", "setting": "[2]; 5 hours after the study start", "result": "trace"}, {"measurement": "excretion", "setting": "[2]; [4]", "result": 30, "unit": "%"}, {"measurement": "retention in the skeleton", "setting": "[2]; [4]", "result": 47, "unit": "%"}, {"measurement": "injected activity localizes in the skeleton", "setting": "[2]; intact animals, intravenous injection, in one hour", "result": "up to 48 % of the injected activity"}, {"measurement": "excreted from the organism with the urine", "setting": "[2]; intact animals, intravenous injection, in one hour, 60 min", "result": 45, "unit": "%"}, {"measurement": "Blood", "setting": "[2]; 1 h", "result": "1.7 ± 0.27", "unit": "% dose/organ"}, {"measurement": "Femur", "setting": "[2]; 1 h", "result": "1.8 ± 0.16", "unit": "% dose/organ"}, {"measurement": "Kidneys", "setting": "[2]; 1 h", "result": "1.3 ± 0.17", "unit": "% dose/organ"}, {"measurement": "Liver", "setting": "[2]; 1 h", "result": "0.8 ± 0.12", "unit": "% dose/organ"}, {"measurement": "Skeleton", "setting": "[2]; 1 h", "result": "48.1 ± 4.36", "unit": "% dose/organ"}, {"measurement": "Stomach", "setting": "[2]; 1 h", "result": "0.1 ± 0.03", "unit": "% dose/organ"}, {"measurement": "Urinary bladder (1, 3 h)", "setting": "[2]; 1 h", "result": "45.4 ± 4.03", "unit": "% dose/organ"}, {"measurement": "Blood", "setting": "[2]; 3 h", "result": "0.9 ± 0.38", "unit": "% dose/organ"}, {"measurement": "Femur", "setting": "[2]; 3 h", "result": "1.9 ± 0.35", "unit": "% dose/organ"}, {"measurement": "Kidneys", "setting": "[2]; 3 h", "result": "0.9 ± 0.21", "unit": "% dose/organ"}, {"measurement": "Liver", "setting": "[2]; 3 h", "result": "1.0 ± 0.27", "unit": "% dose/organ"}, {"measurement": "Skeleton", "setting": "[2]; 3 h", "result": "47.3 ± 2.89", "unit": "% dose/organ"}, {"measurement": "Stomach", "setting": "[2]; 3 h", "result": "0.1 ± 0.01", "unit": "% dose/organ"}, {"measurement": "Urinary bladder (1, 3 h)", "setting": "[2]; 3 h", "result": "30.1 ± 4.41", "unit": "% dose/organ"}, {"measurement": "Blood", "setting": "[2]; 5 h", "result": "0.4 ± 0.03", "unit": "% dose/organ"}, {"measurement": "Excretion (5, 24)", "setting": "[2]; 5 h", "result": "52.4 ± 2.80", "unit": "% dose/organ"}, {"measurement": "Femur", "setting": "[2]; 5 h", "result": "1.6 ± 0.11", "unit": "% dose/organ"}, {"measurement": "Kidneys", "setting": "[2]; 5 h", "result": "1.2 ± 0.13", "unit": "% dose/organ"}, {"measurement": "Liver", "setting": "[2]; 5 h", "result": "0.6 ± 0.11", "unit": "% dose/organ"}, {"measurement": "Skeleton", "setting": "[2]; 5 h", "result": "42.9 ± 2.93", "unit": "% dose/organ"}, {"measurement": "Stomach", "setting": "[2]; 5 h", "result": "0.1 ± 0.04", "unit": "% dose/organ"}, {"measurement": "Blood", "setting": "[2]; 24 h", "result": "traces"}, {"measurement": "Excretion (5, 24)", "setting": "[2]; 24 h", "result": "39.1 ± 5.00", "unit": "% dose/organ"}, {"measurement": "Femur", "setting": "[2]; 24 h", "result": "1.8 ± 0.06", "unit": "% dose/organ"}, {"measurement": "Kidneys", "setting": "[2]; 24 h", "result": "0.6 ± 0.32", "unit": "% dose/organ"}, {"measurement": "Liver", "setting": "[2]; 24 h", "result": "0.2 ± 0.13", "unit": "% dose/organ"}, {"measurement": "Skeleton", "setting": "[2]; 24 h", "result": "49.6 ± 1.77", "unit": "% dose/organ"}, {"measurement": "Stomach", "setting": "[2]; 24 h", "result": "0.3 ± 0.05", "unit": "% dose/organ"}, {"measurement": "Blood", "setting": "[3]; 1 h", "result": "1.7 ± 0.71", "unit": "% dose/organ"}, {"measurement": "Femur, fractured", "setting": "[3]; 1 h", "result": "4.2 ± 1.04", "unit": "% dose/organ"}, {"measurement": "Femur, normal", "setting": "[3]; 1 h", "result": "2.1 ± 0.20", "unit": "% dose/organ"}, {"measurement": "Kidneys", "setting": "[3]; 1 h", "result": "1.8 ± 0.83", "unit": "% dose/organ"}, {"measurement": "Liver", "setting": "[3]; 1 h", "result": "1.7 ± 0.58", "unit": "% dose/organ"}, {"measurement": "Skeleton", "setting": "[3]; 1 h", "result": "57.7 ± 5.54", "unit": "% dose/organ"}, {"measurement": "Stomach", "setting": "[3]; 1 h", "result": "0.4 ± 0.03", "unit": "% dose/organ"}, {"measurement": "Urinary bladder (1, 3 h)", "setting": "[3]; 1 h", "result": "35.1 ± 10.53", "unit": "% dose/organ"}, {"measurement": "Blood", "setting": "[3]; 3 h", "result": "2.0 ± 0.81", "unit": "% dose/organ"}, {"measurement": "Femur, fractured", "setting": "[3]; 3 h", "result": "4.0 ± 1.34", "unit": "% dose/organ"}, {"measurement": "Femur, normal", "setting": "[3]; 3 h", "result": "1.9 ± 0.42", "unit": "% dose/organ"}, {"measurement": "Kidneys", "setting": "[3]; 3 h", "result": "1.4 ± 0.68", "unit": "% dose/organ"}, {"measurement": "Liver", "setting": "[3]; 3 h", "result": "1.1 ± 0.42", "unit": "% dose/organ"}, {"measurement": "Skeleton", "setting": "[3]; 3 h", "result": "46.6 ± 7.81", "unit": "% dose/organ"}, {"measurement": "Stomach", "setting": "[3]; 3 h", "result": "0.2 ± 0.09", "unit": "% dose/organ"}, {"measurement": "Urinary bladder (1, 3 h)", "setting": "[3]; 3 h", "result": "44.8 ± 3.89", "unit": "% dose/organ"}, {"measurement": "Blood", "setting": "[3]; 5 h", "result": "0.5 ± 0.01", "unit": "% dose/organ"}, {"measurement": "Excretion (5, 24)", "setting": "[3]; 5 h", "result": "43.4 ± 5.05", "unit": "% dose/organ"}, {"measurement": "Femur, fractured", "setting": "[3]; 5 h", "result": "3.1 ± 0.70", "unit": "% dose/organ"}, {"measurement": "Femur, normal", "setting": "[3]; 5 h", "result": "1.9 ± 0.20", "unit": "% dose/organ"}, {"measurement": "Kidneys", "setting": "[3]; 5 h", "result": "0.9 ± 0.06", "unit": "% dose/organ"}, {"measurement": "Liver", "setting": "[3]; 5 h", "result": "1.0 ± 0.05", "unit": "% dose/organ"}, {"measurement": "Skeleton", "setting": "[3]; 5 h", "result": "49.9 ± 5.44", "unit": "% dose/organ"}, {"measurement": "Stomach", "setting": "[3]; 5 h", "result": "0.4 ± 0.05", "unit": "% dose/organ"}, {"measurement": "Blood", "setting": "[3]; 24 h", "result": "0.7 ± 0.01", "unit": "% dose/organ"}, {"measurement": "Excretion (5, 24)", "setting": "[3]; 24 h", "result": "52.5 ± 10.86", "unit": "% dose/organ"}, {"measurement": "Femur, fractured", "setting": "[3]; 24 h", "result": "2.5 ± 0.05", "unit": "% dose/organ"}, {"measurement": "Femur, normal", "setting": "[3]; 24 h", "result": "1.4 ± 0.40", "unit": "% dose/organ"}, {"measurement": "Kidneys", "setting": "[3]; 24 h", "result": "0.5 ± 0.08", "unit": "% dose/organ"}, {"measurement": "Liver", "setting": "[3]; 24 h", "result": "0.5 ± 0.09", "unit": "% dose/organ"}, {"measurement": "Skeleton", "setting": "[3]; 24 h", "result": "38.0 ± 11.02", "unit": "% dose/organ"}, {"measurement": "Stomach", "setting": "[3]; 24 h", "result": "traces"}, {"measurement": "Delayed retention index", "setting": "[3]; 1 h", "result": 2.0}, {"measurement": "Delayed retention index", "setting": "[3]; 3 h", "result": 2.1}, {"measurement": "Delayed retention index", "setting": "[3]; 5 h", "result": 1.7}, {"measurement": "Delayed retention index", "setting": "[3]; 24 h", "result": 1.9}]}]}
